Experimental data from ChEMBL document CHEMBL3227973, “Synthesis and platelet aggregation inhibitory activity of 6-isobutyl-alpha-methyl-3-pyridineacetic acid” (1979).
Activity calls are given as the source filed them. The calls are words filed in the database; no cut-off is given here.

What was measured:
Rattus norvegicus [1] = assay: Ex vivo antiplatelet activity in Sprague-Dawley rat assessed as inhibition of collagen-induced platelet aggregation at 10 mg/kg, po after 1 hr; format: functional
Rattus norvegicus [2] = assay: Ex vivo antiplatelet activity in Sprague-Dawley rat assessed as inhibition of collagen-induced platelet aggregation at 50 mg/kg, po after 1 hr; format: functional
Mus musculus = species on record: Mus musculus; assay: Ex vivo antiplatelet activity in mouse assessed as inhibition of collagen-induced platelet aggregation at equivalent dose of ibuprofen after 1 hr
Rattus norvegicus [3] = assay: Ex vivo antiplatelet activity in Sprague-Dawley rat assessed as inhibition of collagen-induced platelet aggregation at 40 mg/kg, po after 1 hr; format: functional

| Structure (SMILES) | inhibition in vivo at 10 mg/kg (Rattus norvegicus [1]) [%] | inhibition in vivo at 50 mg/kg (Rattus norvegicus [2]) [%] | inhibition (Mus musculus) | inhibition in vivo at 40 mg/kg (Rattus norvegicus [3]) [%] |
| --- | --- | --- | --- | --- |
| CC(C)Cc1ccc(C(C)C(=O)O)cn1 (stereo not given) | 33 | 65 |  |  |
| CC(C)Cc1ccc(C(C)C(=O)O)c(Cl)n1 (stereo not given) |  |  | inactive |  |
| CC(C)Cc1ccc(C(C)C(=O)O)cc1 (stereo not given) [IBUPROFEN] | 10 |  |  | 88 |
